In PMC6408513, “A Novel Lactate Dehydrogenase Inhibitor, 1-(Phenylseleno)-4-(Trifluoromethyl) Benzene, Suppresses Tumor Growth through Apoptotic Cell Death” (Scientific Reports, 2019):

Key:
[1] = target: T1, lactate dehydrogenase A (LDHA) (Homo sapiens, UniProt P00338); assay: in vitro LDH activity assay by NADH fluorescence; Michaelis-Menten/Lineweaver-Burk; inhibits […]-pyruvate binding; type: biochemical; design: purified recombinant human LDHA
[2] = target: T1, lactate dehydrogenase A (LDHA); assay: […]-pyruvate radioligand binding to bead-bound LDHA, competed by unlabeled pyruvate; design: purified His tagged-LDHA
[3] = target: T1, lactate dehydrogenase A (LDHA); assay: in vitro LDH activity assay by NADH fluorescence; type: biochemical; design: purified recombinant human LDHA

## FC(F)(F)c1ccc([Se]c2ccccc2)cc1 [PSTMB, 1-(phenylseleno)-4-(trifluoromethyl)benzene]
[1]
  IC50: 145 nM

## CC(=O)C(=O)O [pyruvate]
[2]
  14C-pyruvate radioligand binding to bead-bound LDHA, competed by unlabeled pyruv: The binding of pyruvate to LDHA was determined using C^14-labeled pyruvate.

## c1ccc([Se]C2CCSC2)cc1 (stereo not drawn) [tetrahydro-3-(phenylseleno) thiophene]
[3]
  in vitro LDH activity assay by NADH fluorescence: tetrahydro-3-(phenylseleno) thiophene, and 1-methoxy-4-[(phenylmethyl)seleno]benzene had inhibitory effects on LDHA activity
